# Results: US7608630B2, “Marasmius androsaceus L.es Fr extract, piperidone derivative, and their use for the preparation of hypertensives” (Hainan Yangpu New Special Pharmaceutical Co., Ltd., priority 2004, dated 2009)
# Several values for one entry are separate records, joined by “and”; a condition that tells them apart may be missing. Equal entries are not always repeated.
# Columns and labels:
# [1] = test system: ileum smooth muscle of guinea pig; assay: Effects on ileum smooth muscle of guinea pig (automatic rhythmic contraction of isolated ileum section)
# Method: The section was clamped at its both ends with frog heart clips, and placed in a perfusion tank with the lower end being fixed at the bottom of the tank and the top end being connected by a thread to a tensile transducer of a two-way electrophysiolograph, so that the automatic rhythmic contraction of the ileum section was recorded. The Tai's nutrient solution in the tank was kept at a temperature of 35° C., into which pure […] was bubbled. […] The normal contraction curve of the ileum section was firstly recorded using isoprenaline as a positive control.
# [2] = test system: aorta smooth muscle of rabbit; assay: Effects on aorta of rabbit (contraction of isolated aorta section caused by adrenalin); set-up: species or system New Zealand rabbit
# Method: A New Zealand rabbit was beheaded and unconscious. After thoracotomy, its thoracic aorta was quickly taken out, and quickly placed in and flushed with a pre-cooled LOCK's solution (which comprised of 1000 ml water, 9 g NaCl, 0.35 g KCl, 0.35 g MgSO4.7H2O, 0.16 g KH2PO4, and 1 g NaHCO3) to remove bloodiness. The connective tissue outside the blood vessel was carefully cut off, and an aorta section of 2-3 mm wide at an angle of 45° relative to the vessel was taken for use in the following test.
# The aorta section of 2 cm long was clamped at its both ends with frog heart clips, and put in a thermostatic perfusion tank of 38° C. with the lower end being fixed at the bottom of the tank and the top end being connected by a thread to a tensile transducer of a two-way electrophysiolograph. Oxygen was bubbled to the solution in the perfusion tank, and the contraction force of the aorta section was recorded after balancing it in the solution for 80 min. During which, the LOCK's solution was changed once per 20 min. After adding 1.2×10^−6 mg/ml adrenalin to the solution, the contraction curve of the aorta section was recorded.
# [3] = test system: blood pressure of SHR rat; assay: Reduction of blood pressure of anesthetized SHR rat; assay type: in vivo, spontaneously hypertensive rat (SHR); settings: for Diastolic pressure / Systolic pressure: 10 mg/kg intravenous
# Method: (§1) A spontaneously hypertensive rat (SHR) was anesthetized with 40 mg/ml pentobarbital, and fixed by its back on an experimental stand. The skin at its neck was cut open after removing hair, and thereafter the right common carotid artery was separated with its proximal end being clamped by a artery clamp and its axifugal end being ligated by a thread. A V-shape cut was made with scissors at the axifugal end, into which an arterial cannula filled with heparin physiological saline was inserted. The arterial cannula was connected with a blood pressure transducer, and then the blood pressure transducer was connected to a computer-controlled three-way physiological-pharmacological recorder. The right femoral vein of the rat was separated and intubated for the injection of a drug. When the blood pressure became stable (i.e., the blood pressure contraction curve became straight), the rat was administered by intravenous route.
# blood pressure of cats = assay: Reduction of blood pressure of cat; assay type: in vivo; settings: for Average Diastolic pressure / Average Systolic pressure / Diastolic pressure, Animal 1-4 individually / Systolic pressure, Animal 1-4 individually: cats, 5 mg/kg iv; for Diastolic pressure, Animal 1-4 individually / Systolic pressure, Animal 1-4 individually: 5 mg/kg
# Method: as §1
# Five cats of 2.5-3.2 kg were administered orally and intravenously respectively according to the method in Example 8, and then their systolic pressure and diastolic pressure were determined using normal cats non-administered as a control group.
# [4] = concentration range 5×10^−4 to 10×10^−2 mg/ml
# [5] = SHR rat, 5 min after administration
# [6] = SHR rat, 60 min after administration
# [7] = SHR rat, 120 min after administration
# [8] = SHR rat, 240 min after administration
compound,measurement,setting,value
"CC1(C)CNCC(C)(C)C1=O [Compound of formula II, 3,3,5,5-tetramethyl-4-piperidone]",Relaxation Time,[1]; concentration 1 × 10^−4 mg/ml,7 h
same,Time of taking effect,[1]; concentration 1 × 10^−4 mg/ml,2 min
same,inhibition of the automatic rhythmic contraction of ileum section,[1]; [4],inhibit the automatic rhythmic contraction of ileum section
same,inhibition of the automatic rhythmic contraction of the ileum section,[1]; different concentrations,could inhibit the automatic rhythmic contraction of the ileum section
same,Time of taking effect,[2]; concentration 1 × 10^−4 mg/ml,2 min
same,Contraction force,"[2]; concentration 1 × 10^−4 mg/ml, 10 min, then adrenalin 1.2×10^−6 mg/ml, relative to original value",0.3
same,reduction of the contraction of aorta section caused by adrenalin,[2]; concentration range 5×10^−3-1×10^−4 mg/ml,could obviously reduce the contraction of aorta section caused by adrenalin
same,inhibition of the contraction of aorta smooth muscle caused by adrenalin,[2]; [4],inhibit the contraction of aorta smooth muscle of rabbit caused by adrenalin
same,"contraction force resumed by adrenalin, fraction of the original value","[2]; sample 10 min, then adrenalin 1.2×10^−6 mg/ml, stated for the three samples together",½-⅓
same,effect of reducing blood pressure,"[3]; 5-20 mg/kg, model of anesthetic rat",very obvious effect of reducing blood pressure
same,Diastolic pressure,[3]; [5],105 ± 11 mm/Hg
same,Systolic pressure,[3]; [5],141 ± 9.2 mm/Hg
same,Diastolic pressure,[3]; [6],84 ± 11 mm/Hg
same,Systolic pressure,[3]; [6],120 ± 12 mm/Hg
same,Diastolic pressure,[3]; [7],83 ± 21 mm/Hg
same,Systolic pressure,[3]; [7],125 ± 14 mm/Hg
same,Diastolic pressure,[3]; [8],110 ± 18 mm/Hg
same,Systolic pressure,[3]; [8],163 ± 12 mm/Hg
same,Diastolic pressure,"[3]; SHR rat, before administration",124 ± 12 mm/Hg
same,Systolic pressure,"[3]; SHR rat, before administration",174 ± 11 mm/Hg
same,reduction of systolic pressure and diastolic pressure,"[3]; SHR rat, dosage range 10-200 mg/kg, intravenous",could obviously reduce the systolic pressure and diastolic pressure of SHR rat
same,effect of reducing blood pressure,"blood pressure of cats; 5-20 mg/kg, model of anesthetic cat",very obvious effect of reducing blood pressure
same,Average Diastolic pressure,blood pressure of cats; 10 min after administration,106 mmHg
same,Average Systolic pressure,blood pressure of cats; 10 min after administration,135.5 mmHg
same,"Diastolic pressure, Animal 1-4 individually",blood pressure of cats; 10 min after administration,84 mmHg and 93 mmHg and 146 mmHg and 101 mmHg
same,"Systolic pressure, Animal 1-4 individually",blood pressure of cats; 10 min after administration,100 mmHg and 110 mmHg and 182 mmHg and 150 mmHg
same,Average Diastolic pressure,blood pressure of cats; 20 min after administration,105.75 mmHg
same,Average Systolic pressure,blood pressure of cats; 20 min after administration,139.75 mmHg
same,"Diastolic pressure, Animal 1-4 individually",blood pressure of cats; 20 min after administration,79 mmHg and 109 mmHg and 137 mmHg and 98 mmHg
same,"Systolic pressure, Animal 1-4 individually",blood pressure of cats; 20 min after administration,111 mmHg and 126 mmHg and 172 mmHg and 150 mmHg
same,Average Diastolic pressure,blood pressure of cats; 30 min after administration,106.25 mmHg
same,Average Systolic pressure,blood pressure of cats; 30 min after administration,141.25 mmHg
same,"Diastolic pressure, Animal 1-4 individually",blood pressure of cats; 30 min after administration,80 mmHg and 111 mmHg and 136 mmHg and 98 mmHg
same,"Systolic pressure, Animal 1-4 individually",blood pressure of cats; 30 min after administration,119 mmHg and 137 mmHg and 173 mmHg and 136 mmHg
same,Average Diastolic pressure,blood pressure of cats; 40 min after administration,110.5 mmHg
same,Average Systolic pressure,blood pressure of cats; 40 min after administration,144.5 mmHg
same,"Diastolic pressure, Animal 1-4 individually",blood pressure of cats; 40 min after administration,100 mmHg and 111 mmHg and 134 mmHg and 97 mmHg
same,"Systolic pressure, Animal 1-4 individually",blood pressure of cats; 40 min after administration,134 mmHg and 137 mmHg and 172 mmHg and 135 mmHg
same,Average Diastolic pressure,blood pressure of cats; 50 min after administration,117 mmHg
same,Average Systolic pressure,blood pressure of cats; 50 min after administration,152.25 mmHg
same,"Diastolic pressure, Animal 1-4 individually",blood pressure of cats; 50 min after administration,117 mmHg and 120 mmHg and 134 mmHg and 97 mmHg
same,"Systolic pressure, Animal 1-4 individually",blood pressure of cats; 50 min after administration,156 mmHg and 147 mmHg and 171 mmHg and 135 mmHg
same,Average Diastolic pressure,blood pressure of cats; 60 min after administration,118.25 mmHg
same,Average Systolic pressure,blood pressure of cats; 60 min after administration,158 mmHg
same,"Diastolic pressure, Animal 1-4 individually",blood pressure of cats; 60 min after administration,131 mmHg and 120 mmHg and 130 mmHg and 92 mmHg
same,"Systolic pressure, Animal 1-4 individually",blood pressure of cats; 60 min after administration,174 mmHg (2×) and 142 mmHg (2×)
same,Average Diastolic pressure,blood pressure of cats; 90 min after administration,121.75 mmHg
same,Average Systolic pressure,blood pressure of cats; 90 min after administration,164.5 mmHg
same,"Diastolic pressure, Animal 1-4 individually",blood pressure of cats; 90 min after administration,122 mmHg and 129 mmHg and 144 mmHg and 92 mmHg
same,"Systolic pressure, Animal 1-4 individually",blood pressure of cats; 90 min after administration,170 mmHg and 167 mmHg and 178 mmHg and 143 mmHg
same,Average Diastolic pressure,blood pressure of cats; 120 min after administration,124 mmHg
same,Average Systolic pressure,blood pressure of cats; 120 min after administration,174.5 mmHg
same,"Diastolic pressure, Animal 1-4 individually",blood pressure of cats; 120 min after administration,123 mmHg and 129 mmHg and 148 mmHg and 96 mmHg
same,"Systolic pressure, Animal 1-4 individually",blood pressure of cats; 120 min after administration,182 mmHg and 167 mmHg and 202 mmHg and 147 mmHg
same,Average Diastolic pressure,blood pressure of cats; 150 min after administration,127.5 mmHg
same,Average Systolic pressure,blood pressure of cats; 150 min after administration,177 mmHg
same,"Diastolic pressure, Animal 1-4 individually",blood pressure of cats; 150 min after administration,124 mmHg and 140 mmHg and 148 mmHg and 98 mmHg
